Experimental findings from article PMC7738880, “Identification of novel CD44v6-binding peptides that block CD44v6 and deliver a pro-apoptotic peptide to tumors to inhibit tumor growth and metastasis in mice” (Theranostics, 2021) are described below.

Residues, ends and D or L forms follow the SMILES beside them.

One series has as its system MDA-MB231-luc cells. Nature of the series: MDA-MB231-luc experimental lung metastasis model. The class given is in vivo. As to the method: A mouse model of lung metastasis of breast cancer was prepared by injecting 1 × 10^6 MDA-MB231-luc cells into 6-week-old female BALB/c nude mice via tail vein. To monitor the localization of the tumor cells in the lungs, the mice were injected intraperitoneally with D-luciferin at a dose of 150 mg/kg body weight and subjected to a whole-body bioluminescence imaging using IVIS imaging system (Perkin Elmer) after a 10-min resting period. Mice (n = 10 per group) were randomly assigned to groups based on the luminescence intensity. At 1 h after tumor cell injection, tumor-bearing mice received intravenous injections of CD44v6-binding peptides through the tail vein (14.2 mg/kg body weight, thrice weekly for 3 weeks) alone or in combination with orally administered crizotinib in 5% dimethyl sulfoxide (DMSO) (25 mg/kg of body weight, twice weekly for 3 weeks) as previously described, [29]. Metastatic tumor growth after treatments was monitored by measuring the total photon flux (number of photons/second) in the whole body using the IVIS imaging system. The body weights of mice and tumor ulceration were monitored throughout the treatment period. At the end of the treatment period, half of the mice (n = 5 per group) were used for the collection of blood, sacrificed, the lungs were harvested and weighed, and the numbers of metastatic tumor nodules in the lungs were counted. The remaining mice (n = 5 per group) were maintained until death to determine the survival rates. For the analysis of hematological parameters, 1 mL of blood was collected from each mouse and separated into 500 µL aliquots used to prepare serum and plasma. Serum was obtained by centrifuging clotted blood at 4 °C twice, followed by filtration (pore size: 0.22 µm). Plasma was obtained by centrifuging ethylenediaminetetraacetic acid-treated samples. Hematological parameters and liver and kidney function markers were measured by DGMIF (Daegu, Korea).

A further series deals with 4T1 cells. Nature of the series: Annexin V/propidium iodide apoptosis assay, 4T1. In kind it is cell-based, mouse. The following applies: 2 h, versus combined NLN or NEW and KLA. As to the method:
(§1) For apoptosis assays, cells were plated in 6-well plates at a density of 5 × 10^5 cells per well overnight and treated with different concentrations of peptides (0, 2, 4, 8, 16, 32, 64, 128, and 256 µM) at 37 °C for 2 h. Cells were harvested, washed, and mixed with annexin V binding buffer. Then, 1 μg/mL of propidium iodide and 5 μL of APC annexin V reagent (ThermoFisher Scientific, Waltham, MA) were added to stain necrotic and apoptotic cells. Percent of annexin V-positive and propidium iodide-negative cells were measured using flow cytometry.

A further series deals with 4T1-luc cells. The series can be described thus: 4T1-luc orthotopic spontaneous metastasis model. The class given is in vivo. The following applies: 10 mg/kg i.v. thrice weekly for 3 weeks; for hematologic parameters and liver and kidney functional marker levels: n = 5/group; for luminescence signals and total photon flux from the whole body: n = 10 per group; for luminescence signals and total photon flux from the whole body / TUNEL-positive apoptotic cells in primary tumor tissues / number of metastatic tumor nodules / percent survival / tumor volume / tumor weight: more efficiently than combined NLN or NEW and KLA. As to the method: (§2) 4T1-luc cells (1 × 10^6 cells) were orthotopically inoculated into the mammary fat pads in 6-week-old female BALB/c mice. Panc-1 cells (1 × 10^6 cells) were subcutaneously inoculated into lower right flank in 6-week-old female BALB/c nude mice To monitor 4T1-luc tumor growth, mice were intraperitoneally injected with D-luciferin (150 mg/kg body weight), incubated for 10 min, and subjected to a whole-body bioluminescence imaging using the IVIS imaging system (Perkin Elmer). At two weeks after the inoculation, mice were randomly sorted into groups based on the luminescence intensity (4T1-luc) or tumor size (Panc-1). CD44v6-binding peptides were administered intravenously to 4T1 tumor-bearing mice (n = 6 per group) through the tail vein (14.2 mg/kg body weight, thrice weekly for three weeks) alone or in combination with crizotinib. Crizotinib in 5% DMSO was administered orally (12.5 and 25 mg/kg body weight, twice weekly for three weeks). CD44v6-targeted pro-apoptotic peptides or CD44v6-binding peptides and pro-apoptotic peptide in combination were intravenously administered to 4T1 or Panc-1 tumor-bearing mice (n = 10 per group) through the tail vein (10 mg/kg body weight, thrice weekly for 3 weeks). Primary tumor growth was monitored by measuring tumor volumes using a caliper and total photon flux in the whole body using the IVIS imaging system. The body weights and tumor ulceration were monitored throughout the treatment period. At the end of the treatments, half of the mice were used for the collection of blood, sacrificed, and the primary tumor weights and numbers of metastatic tumor nodules in the isolated lungs were determined. The remaining mice were maintained until death to determine the survival rates. The hematological parameters and liver and kidney function markers in plasma and serum samples were analyzed as described above. The normal ranges of hematological parameters of the BALB/c mouse and BALB/c nude mouse were obtained from Charles River Laboratories website (www.criver.com).

Series [1] has as its system Panc-1 cells. The series can be described thus: Panc-1 subcutaneous spontaneous metastasis model. The class given is in vivo, BALB/c nude mouse. Particulars: 10 mg/kg i.v. thrice weekly for 3 weeks; more efficiently than combined NLN or NEW and KLA. The protocol: as §2
Series [2] has as its system Panc-1 cells. The series can be described thus: Annexin V/propidium iodide apoptosis assay, Panc-1. The class given is cell-based, human. The following applies: 2 h, versus combined NLN or NEW and KLA. As to the method: as §1
The subject of series [3] is MDA-MB231 cells. Nature of the series: Intracellular trafficking with MitoTracker and LysoTracker. Particulars: peptide 10 µM, 37 °C, 2-4 h, confocal. The class given is cell-based, human. As to the method: To examine the intracellular trafficking of peptides cells were incubated with peptides (10 µM) at 37 °C for 2 h and stained with MitoTracker Deep Red FM (ThermoFisher Scientific), a mitochondrial marker. In another set of experiments, cells were incubated with peptides at 37 °C for 4 h and stained with LysoTracker Red DND-99 (ThermoFisher Scientific), a late endosome/lysosome marker. After staining, cells were fixed with 4% paraformaldehyde for 10 min at room temperature, stained with DAPI, and then mounted using ProLong gold anti-fade reagent (ThermoFisher Scientific). Subcellular fluorescence was detected using a confocal microscope (Zeiss).

Series [4] relates to MDA-MB231 cells. The series can be described thus: Annexin V/propidium iodide apoptosis assay, MDA-MB231. The class given is cell-based, human. Particulars: 2 h, versus combined NLN or NEW and KLA. The protocol:
as §1

The target of series [5] is CD44v6, endogenous in MDA-MB231 human breast tumor cells (human (endogenous in MDA-MB231)). Nature of the series: saturation binding to cells; saturation binding assays on MDA-MB231, 4T1, Panc-1 and MCF7 cells (Figure S2A); method and label of the peptide not given.
Sequence of CD44v6, endogenous in MDA-MB231 human breast tumor cells (human (endogenous in MDA-MB231)) (P16070 21-742): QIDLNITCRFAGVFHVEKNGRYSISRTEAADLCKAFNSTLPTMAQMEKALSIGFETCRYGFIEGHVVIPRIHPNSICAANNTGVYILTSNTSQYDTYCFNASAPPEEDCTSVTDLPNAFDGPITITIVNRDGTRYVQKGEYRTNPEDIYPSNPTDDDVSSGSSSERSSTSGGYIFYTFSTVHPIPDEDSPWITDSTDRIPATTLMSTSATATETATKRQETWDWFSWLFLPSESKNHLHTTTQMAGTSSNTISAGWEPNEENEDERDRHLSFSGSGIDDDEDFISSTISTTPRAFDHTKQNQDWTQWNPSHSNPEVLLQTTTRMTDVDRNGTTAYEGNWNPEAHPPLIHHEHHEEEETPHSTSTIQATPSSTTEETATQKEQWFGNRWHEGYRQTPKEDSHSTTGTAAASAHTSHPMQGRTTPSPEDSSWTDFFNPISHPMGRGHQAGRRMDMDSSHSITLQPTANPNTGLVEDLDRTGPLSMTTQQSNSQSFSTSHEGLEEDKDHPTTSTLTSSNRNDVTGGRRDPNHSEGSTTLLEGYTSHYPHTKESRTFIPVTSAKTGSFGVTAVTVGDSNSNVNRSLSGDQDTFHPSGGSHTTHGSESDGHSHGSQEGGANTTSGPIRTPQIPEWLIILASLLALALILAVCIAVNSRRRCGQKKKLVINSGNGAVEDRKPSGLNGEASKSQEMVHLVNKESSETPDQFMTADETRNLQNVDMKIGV

On to `C[C@@H](Oc1cc(-c2cnn(C3CCNCC3)c2)cnc1N)c1c(Cl)ccc(F)c1Cl` [crizotinib, reference compound], for which the “growth of MDA-MB231-luc metastases in the lungs” value in the series on MDA-MB231-luc cells (crizotinib 25 mg/kg oral twice weekly for 3 weeks) was “inhibited”. The survival rate entry in the series on MDA-MB231-luc cells (peptide 14.2 mg/kg i.v. thrice weekly or crizotinib 25 mg/kg oral twice weekly, 3 weeks, single treatment) is given as “increased the survival rate”.

For `CC(C)C[C@H](NC(=O)[C@H](CCCCN)NC(=O)CNC(=O)CNC(=O)CNC(=O)[C@H](CS)NC(=O)[C@H](CO)NC(=O)[C@H](CCCCN)NC(=O)[C@H](CC(C)C)NC(=O)[C@H](CCC(N)=O)NC(=O)[C@H](Cc1c[nH]c2ccccc12)NC(=O)[C@H](CCC(=O)O)NC(=O)[C@H](CC(N)=O)NC(=O)[C@@H](N)CS)C(=O)N[C@@H](C)C(=O)N[C@@H](CCCCN)C(=O)N[C@@H](CC(C)C)C(=O)N[C@@H](C)C(=O)N[C@@H](CCCCN)C(=O)N[C@@H](CCCCN)C(=O)N[C@@H](CC(C)C)C(=O)N[C@@H](C)C(=O)N[C@@H](CCCCN)C(=O)N[C@@H](CC(C)C)C(=O)N[C@@H](C)C(=O)N[C@@H](CCCCN)C(=O)O` [NEW-KLA] (H-CNEWQLKSCGGGKLAKLAKKLAKLAK-OH), the “induction of apoptosis, 4T1” value with 4T1 cells is recorded as “more efficiently than the combined treatment”. Also, in the series on 4T1-luc cells, the “hematologic parameters and liver and kidney functional marker levels” value is “within or close to the normal ranges”; the “luminescence signals and total photon flux from the whole body” value is “decreased”; the “TUNEL-positive apoptotic cells in primary tumor tissues” value is reported as “increasing”; the “number of metastatic tumor nodules” value is on record as “reduced”. Moreover, in the series with 4T1-luc cells, the percent survival entry is reported as “increasing”, the tumor volume entry is “reduced” and the tumor weight entry is reported as “reduced”. In addition, in the series with Panc-1 cells [1], the “percent survival and TUNEL-positive apoptotic cells in tumor tissues” value is reported as “increased”; the “tumor growth and metastasis to the lungs” value is “inhibited”. In addition, the “induction of apoptosis, Panc-1” value with Panc-1 cells [2] was “more efficiently than the combined treatment”. In addition, in the series on MDA-MB231 cells [3], the intracellular localization entry is “closely co-localized with mitochondria and lysosomes”. In addition, the “induction of apoptosis, MDA-MB231” value in the series with MDA-MB231 cells [4] is on record as “more efficiently than the combined treatment”.

Regarding `CC[C@H](C)[C@H](NC(=O)[C@@H](NC(=O)[C@H](CC(N)=O)NC(=O)[C@H](CC(C)C)NC(=O)[C@H](CC(N)=O)NC(=O)[C@@H](N)CS)[C@@H](C)O)C(=O)N[C@@H](CC(=O)O)C(=O)N[C@H](C(=O)N[C@@H](CS)C(=O)NCC(=O)NCC(=O)NCC(=O)N[C@@H](CCCCN)C(=O)N[C@@H](CC(C)C)C(=O)N[C@@H](C)C(=O)N[C@@H](CCCCN)C(=O)N[C@@H](CC(C)C)C(=O)N[C@@H](C)C(=O)N[C@@H](CCCCN)C(=O)N[C@@H](CCCCN)C(=O)N[C@@H](CC(C)C)C(=O)N[C@@H](C)C(=O)N[C@@H](CCCCN)C(=O)N[C@@H](CC(C)C)C(=O)N[C@@H](C)C(=O)N[C@@H](CCCCN)C(=O)O)[C@@H](C)O` [NLN-KLA] (H-CNLNTIDTCGGGKLAKLAKKLAKLAK-OH), the “induction of apoptosis, 4T1” value in the series with 4T1 cells is “more efficiently than the combined treatment”. In the series on 4T1-luc cells, the “hematologic parameters and liver and kidney functional marker levels” value is reported as “within or close to the normal ranges”; the “luminescence signals and total photon flux from the whole body” value is “decreased”; the “TUNEL-positive apoptotic cells in primary tumor tissues” value is “increasing”; the “number of metastatic tumor nodules” value was “reduced”. Further, in the series on 4T1-luc cells, the percent survival result is reported as “increasing”, the tumor volume entry was “reduced” and the tumor weight entry is given as “reduced”. Also, in the series with Panc-1 cells [1], the “percent survival and TUNEL-positive apoptotic cells in tumor tissues” value was “increased”; the “tumor growth and metastasis to the lungs” value was “inhibited”. Besides, in the series on Panc-1 cells [2], the “induction of apoptosis, Panc-1” value is listed as “more efficiently than the combined treatment”. In the series on MDA-MB231 cells [3], the intracellular localization result is “closely co-localized with mitochondria and lysosomes”. In addition, in the series on MDA-MB231 cells [4], the “induction of apoptosis, MDA-MB231” value is “more efficiently than the combined treatment”.

The Kd is the free concentration of one partner at which half of the binding sites on the other are occupied at equilibrium, for simple one-to-one binding. Higher therefore signals a looser complex. In turn, CNEWQLKSC [… peptide (NEW), label not stated] yielded a Kd in series [5] of 18 µM.

For the molecule CNLNTIDTC [… peptide (NLN), label not stated], the equilibrium dissociation constant (Kd) in series [5] was determined as 12 µM.
